Where two headings read alike, the source gives them in different places. One block for each molecule: values may come before it.
Key:
[1] = target: T1, recombinant human carbonic anhydrase II, holocarbonic anhydrase II (Homo sapiens, UniProt P00918); assay: Affinity of holocarbonic anhydrase for Dapoxyl sulfonamide from fluorescence intensity changes; format: binding; conditions: from fluorescence intensity changes (data not shown)
T1 construct: made in house; host or cells: E. coli (inferred from 'by the means previously discussed herein'; b110 states E. coli BL21(DE3)pACA for a variant)
Description: The recombinant human carbonic anhydrase II was obtained by the means previously discussed herein. Fluorescence spectra and anisotropies were determined on a Spectronics AB-2 spectrophotofluorometer; the former are uncorrected. Fluorescence lifetimes were determined on an ISS K2 multifrequency phase fluorometer using the 442 nm line (30 mW) of a Kimmon HeCd laser (for BTCS) or the ultraviolet lines (100 mW) of a Spectra-Physics model 2065-7S argon ion laser (for dapoxyl sulfonamide) essentially as previously described. […]
In particular, emission of the bound form shifts from a peak at 605 nm to 530 nm, and increases about 90-fold, compared to the free form. […] The advantages of intensity ratios for accuracy in quantitating concentrations of metal ions such as calcium are by now widely appreciated. These intensity changes permit the affinity of holocarbonic anhydrase for Dapoxyl sulfonamide to be determined as […] (data not shown). The intensity increase of dapoxyl sulfonamide is also accompanied by a large increase in fluorescence lifetime. We measured the frequency-dependent phase angles and demodulation of dapoxyl sulfonamide free in solution, in the presence of holocarbonic anhydrase II, and in the presence of sonicated unilamellar vesicles of DOPC/cholesterol 3:1 (0.1 M). […]

[2] = target: T2, recombinant human carbonic anhydrase II, wild type, holoprotein (holo-CA, Zn(II) bound) (Homo sapiens, UniProt P00918); assay: Affinity of ABD-M for holo-CA from changes in fluorescence intensity or anisotropy; format: binding; conditions: holocarbonic anhydrase
T2 construct: made in house; host or cells: E. coli (inferred from 'as previously described'; b198 states E. coli for the wild type gene, b110 states BL21(DE3)pACA for a variant)
Description: Our approach for determining metal ions by fluorescence anisotropy is diagrammed in FIG. 16. ABD-M was synthesized by coupling ABD-F (7-fluoro-benz-2-oxa-1,3-diazole-4-sulfonamide; Molecular Probes Cat. No.F-6053) with excess beta-mercaptoethanol in dimethylformamide overnight at room temperature (FIG. 17). […] Recombinant human carbonic anhydrase II was expressed, isolated, and purified; and its Zn(II) removed by treatment with dipicolinate all as previously described. In view of the well-known difficulty of reproducibly preparing solutions with low concentrations of free zinc ion, we prepared a series of metal ion buffers using nitrilotriacetic acid (NTA) and MOPS. […] The concentration of Zn(II) unbound at a particular pH is readily calculable from the known stability constants of the NTA and the pKa's of NTA's ionizable groups (19). […]
Fluorescence spectra, intensities and anisotropies were measured on a Spectronics AB-2 fluorimeter using film polarizers and 4 nm bandpasses. Frequency-dependent phase shifts and demodulations were measured on an ISS K2 phase fluorometer using the UV lines of a Spectra-Physics 2065 argon ion laser for excitation, dimethylPOPOP in ethanol as a reference compound as previously described, and bandpass filters as indicated in the figure legends. […]

[3] = target: T3, wild type human carbonic anhydrase II, holoprotein (holo-CA) (Homo sapiens, UniProt P00918); assay: KD of the diffusible inhibitor ABD-N for the holoprotein; format: binding
T3 construct: made in house; host or cells: E. coli
Description: Genes for wild type human carbonic anhydrase II and variants were isolated, constructed, and expressed in E. coli as previously described. ABD-N was synthesized by coupling ABD-F (Molecular Probes, Eugene, Oreg.) with excess ethanolamine in DMF at room temperature for 4 hours and lyophilizing. Zn(II) was removed from holo-CA to make apo-CA by treatment with dipicolinate as previously described. Fluorescence anisotropy measurements were obtained on an SLM AB-2 spectrophotofluorimeter according to the manufacturer's recommendations, under the spectral conditions given in the figures.
The changes in anisotropy are also dramatic, going from 0.08 to 0.23 as the apoprotein becomes saturated with Zn(II) (FIG. 37); the ordinary accuracy and precision of such measurements is ±0.003. The apparent KD of the enzyme for Zn(II) under these conditions is about 20 picomolar, which is somewhat higher than published values obtained under slightly different conditions.
The use of a separate, diffusible inhibitor like ABD-N can create difficulties, however. […] This Cu(II) determination, while clearly representing a […] response, cannot be due to simple collisional quenching by the Cu(II) at these low concentrations,and furthermore is more than one thousand-fold more sensitive than previous fluorescence-based determinations of Cu(II).

[4] = target: T2, recombinant human carbonic anhydrase II, wild type, holoprotein (holo-CA, Zn(II) bound); conditions: comparison value, conditions not given; read-out: affinity (dansylamide, comparison value); cited from earlier work

Kd [1]: 300 nM
Compound: CN(C)c1ccc(-c2cnc(-c3ccc(S(N)(=O)=O)cc3)o2)cc1 [Dapoxyl sulfonamide]

Kd [2]: 300 nM
Compound: NS(=O)(=O)c1ccc(SCCO)c2nonc12 [ABD-M, 7-fluorobenz-2-oxa-1,3,-diazole-4-sulfonamide+beta-mercaptoethanol adduct]

Kd [3]: ~300 nM
Compound: NS(=O)(=O)c1ccc(NCCO)c2nonc12 [ABD-N, 7-fluorobenz-2-oxa-1,3,-diazole-4-sulfonamide:ethanolamine adduct]

Compound: CN(C)c1cccc2c(S(N)(=O)=O)cccc12 [dansylamide]
Kd [4]: 800 nM

Source: patent publication US6197258A, “Photoluminescent sensors of chemical analytes” (University of Maryland, Baltimore, priority 1999, dated 2001)
